# Assay results from article PMC8882856, “The affinity and selectivity of α‐adrenoceptor antagonists, antidepressants and antipsychotics for the human α2A, α2B, and α2C‐adrenoceptors and comparison with human α1 and β‐adrenoceptors” (Pharmacology Research & Perspectives, 2022).
# Entries after “also recorded” stand apart in the source; their conditions may differ. Where two headings read alike, the source gives them in different places.
# Experiments:
# human α2A‐adrenoceptor [1] = molecular target: T1, human α2A‐adrenoceptor (Homo sapiens, UniProt P08913); experiment: ^3H‐rauwolscine whole cell competition binding, CHO‐α2A cells
# T1 sequence (P08913 1-465): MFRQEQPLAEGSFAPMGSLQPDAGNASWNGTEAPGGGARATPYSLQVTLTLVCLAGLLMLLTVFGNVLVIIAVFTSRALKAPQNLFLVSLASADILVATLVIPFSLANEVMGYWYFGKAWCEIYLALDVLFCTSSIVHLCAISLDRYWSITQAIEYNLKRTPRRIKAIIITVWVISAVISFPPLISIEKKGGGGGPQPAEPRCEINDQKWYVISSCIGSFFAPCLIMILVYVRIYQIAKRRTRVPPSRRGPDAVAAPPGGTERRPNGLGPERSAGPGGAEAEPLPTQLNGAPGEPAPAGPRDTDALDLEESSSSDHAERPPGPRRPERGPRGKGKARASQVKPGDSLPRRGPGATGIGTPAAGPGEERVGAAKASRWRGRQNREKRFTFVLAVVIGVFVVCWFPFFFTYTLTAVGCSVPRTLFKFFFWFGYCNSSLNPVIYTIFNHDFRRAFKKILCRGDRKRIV
# human β2‐adrenoceptor = human β2‐adrenoceptor (Homo sapiens, UniProt P07550); format: binding
# human β1‐adrenoceptor = human β1‐adrenoceptor (Homo sapiens, UniProt P08588)
# human α2B‐adrenoceptor = molecular target: T2, human α2B‐adrenoceptor (Homo sapiens, UniProt P18089); experiment: ^3H‐rauwolscine whole cell competition binding, CHO‐α2B cells
# T2 sequence (P18089 1-450): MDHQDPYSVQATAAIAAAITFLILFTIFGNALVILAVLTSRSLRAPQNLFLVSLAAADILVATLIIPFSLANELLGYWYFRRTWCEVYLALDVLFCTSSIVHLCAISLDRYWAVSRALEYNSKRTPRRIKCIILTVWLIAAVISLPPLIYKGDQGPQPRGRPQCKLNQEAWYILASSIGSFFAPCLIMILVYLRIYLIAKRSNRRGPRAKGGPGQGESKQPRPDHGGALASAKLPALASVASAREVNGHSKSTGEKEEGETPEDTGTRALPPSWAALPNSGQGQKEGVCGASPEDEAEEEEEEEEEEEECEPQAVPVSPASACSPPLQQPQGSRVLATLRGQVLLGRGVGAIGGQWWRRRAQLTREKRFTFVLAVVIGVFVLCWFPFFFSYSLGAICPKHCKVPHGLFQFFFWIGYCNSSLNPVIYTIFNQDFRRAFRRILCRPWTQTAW
# human α2C‐adrenoceptor = molecular target: T3, human α2C‐adrenoceptor (Homo sapiens, UniProt P18825); experiment: ^3H‐rauwolscine whole cell competition binding, CHO‐α2C cells; conditions: for Selectivity ratio α2A vs α2C (higher affinity for α2C) / Selectivity ratio α2B vs α2C (higher affinity for α2C): ratio of KD values
# T3 sequence (P18825 1-462): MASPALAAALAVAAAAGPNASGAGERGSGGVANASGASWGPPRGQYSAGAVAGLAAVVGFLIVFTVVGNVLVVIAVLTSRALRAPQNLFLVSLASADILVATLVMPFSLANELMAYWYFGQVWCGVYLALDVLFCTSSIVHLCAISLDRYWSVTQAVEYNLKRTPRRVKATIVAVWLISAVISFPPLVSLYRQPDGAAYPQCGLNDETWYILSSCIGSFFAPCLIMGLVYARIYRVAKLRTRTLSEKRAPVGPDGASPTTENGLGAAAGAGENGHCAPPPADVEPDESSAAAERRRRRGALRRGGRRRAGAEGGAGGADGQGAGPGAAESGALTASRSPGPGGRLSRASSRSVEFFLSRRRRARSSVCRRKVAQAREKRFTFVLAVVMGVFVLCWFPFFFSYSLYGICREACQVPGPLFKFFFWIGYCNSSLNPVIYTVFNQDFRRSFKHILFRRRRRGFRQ
# human α2A‐adrenoceptor [2] = molecular target: T1, human α2A‐adrenoceptor; experiment: cell-based
# [3] = ^3H‐CGP12177 whole cell binding, log values, mean ± s.e.mean, ^app = apparent KD, 'no binding to' = log top concentration
# [4] = given as log KD (negative values), 3H-CGP12177 whole cell binding, CHO cells, mean ± s.e.mean
# [5] = proportion of site 1 in two-site fit
# [6] = two-component inhibition, proportion of higher affinity site
# Chain of human β2‐adrenoceptor (P07550 whole entry): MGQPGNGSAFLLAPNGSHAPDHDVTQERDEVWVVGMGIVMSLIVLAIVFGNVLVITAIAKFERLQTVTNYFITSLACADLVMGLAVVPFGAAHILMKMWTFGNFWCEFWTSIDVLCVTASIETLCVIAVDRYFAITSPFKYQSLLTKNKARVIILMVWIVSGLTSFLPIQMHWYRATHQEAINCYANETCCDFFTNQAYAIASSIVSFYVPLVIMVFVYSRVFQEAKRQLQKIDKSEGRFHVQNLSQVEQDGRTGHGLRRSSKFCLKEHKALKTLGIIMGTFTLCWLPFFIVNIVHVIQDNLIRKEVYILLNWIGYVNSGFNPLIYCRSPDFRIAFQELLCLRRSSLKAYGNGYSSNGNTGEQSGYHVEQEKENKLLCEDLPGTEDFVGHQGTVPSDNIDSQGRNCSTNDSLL
# Chain of human β1‐adrenoceptor (P08588 whole entry): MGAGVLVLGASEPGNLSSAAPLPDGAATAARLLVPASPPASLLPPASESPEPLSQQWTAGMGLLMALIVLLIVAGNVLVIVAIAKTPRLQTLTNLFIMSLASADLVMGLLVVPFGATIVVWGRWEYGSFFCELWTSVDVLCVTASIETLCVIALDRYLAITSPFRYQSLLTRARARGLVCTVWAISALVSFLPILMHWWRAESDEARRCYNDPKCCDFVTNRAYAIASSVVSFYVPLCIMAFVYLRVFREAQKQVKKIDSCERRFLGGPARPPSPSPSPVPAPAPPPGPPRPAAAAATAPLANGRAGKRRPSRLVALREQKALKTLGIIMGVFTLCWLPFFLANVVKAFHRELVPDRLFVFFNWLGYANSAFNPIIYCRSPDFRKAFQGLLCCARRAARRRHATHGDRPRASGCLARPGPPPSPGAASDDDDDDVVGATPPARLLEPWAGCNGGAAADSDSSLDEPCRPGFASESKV
structure (smiles),measurement,setting,value
CC(C)OC(=O)c1cc2c(OCC(O)CNC(C)(C)C)cccc2[nH]1 (stereo not shown) [SDZ 21009],Log KD α2A (^app = apparent affinity),"human α2A‐adrenoceptor [1]; log KD, negative sign, apparent KD from extrapolated curve, maximum concentration inhibited most but not all specific binding",-4.86 ± 0.07^app
CN1[C@H]2C[C@H](OC(=O)[C@H](CO)c3ccccc3)C[C@@H]1[C@@H](O)C2 [anisodamine],Log KD β2,human β2‐adrenoceptor,no binding to −3; also recorded: no binding to -3
same,Log KD β1,human β1‐adrenoceptor,no binding to −3; also recorded: no binding to -3
same,"IC50 (log) α2A, IC50>top concentration used",human α2A‐adrenoceptor [1],IC50>−3
same,"IC50 (log) α2B, IC50>top concentration used",human α2B‐adrenoceptor,IC50>−3
same,Log KD α2C,human α2C‐adrenoceptor,−3.56 ± 0.07^app
CCC1(c2cnc[nH]2)Cc2ccccc2C1 [atipamezole],Log KD β2,human β2‐adrenoceptor; [3],No binding to −4.5
same,Log KD β2,human β2‐adrenoceptor; [4],No binding to -4.5
same,Log KD β1,human β1‐adrenoceptor; [3],No binding to −4.5
same,Log KD β1,human β1‐adrenoceptor; [4],No binding to -4.5
same,Kd,human α2A‐adrenoceptor [1],3.16 nM
COc1cccc(OC)c1OCCNCC1CSc2ccccc2O1 (stereo not shown) [benoxathian],Log KD β2,human β2‐adrenoceptor; [3],−5.08 ± 0.06
same,Log KD β1,human β1‐adrenoceptor; [3],−4.55 ± 0.03^app
same,Log KD α2A,human α2A‐adrenoceptor [1],−7.17 ± 0.02
same,Selectivity ratio α2A vs α2B (higher affinity for α2A),human α2A‐adrenoceptor [1]; ratio of KD values,16.2
same,Log KD α2B,human α2B‐adrenoceptor,−5.96 ± 0.06
same,Log KD α2C,human α2C‐adrenoceptor,−7.75 ± 0.03
same,Selectivity ratio α2A vs α2C (higher affinity for α2C),human α2C‐adrenoceptor,3.8
same,Selectivity ratio α2B vs α2C (higher affinity for α2C),human α2C‐adrenoceptor,61.7
CN(C)CCCC1(c2ccc(F)cc2)OCc2cc(C#N)ccc21 (stereo not shown) [citalopram],Log KD β2,human β2‐adrenoceptor; [3],No binding to −4
same,Log KD β2,human β2‐adrenoceptor; [4],No binding to -4
same,Log KD β1,human β1‐adrenoceptor; [3],No binding to −4
same,Log KD β1,human β1‐adrenoceptor; [4],No binding to -4
same,IC50,human α2A‐adrenoceptor [1],> 100000 nM
same,IC50,human α2C‐adrenoceptor,> 100000 nM
CN(C)CCCN1c2ccccc2CCc2ccc(Cl)cc21 [clomipramine],Kd,human α2A‐adrenoceptor [2],1950 nM
CC(C)(C)NCC(O)COc1cccc2[nH]c(C#N)cc12 (stereo not shown) [cyanopindolol],Kd,human α2A‐adrenoceptor [1],2750 nM
same,Kd,human α2B‐adrenoceptor,15100 nM
same,Kd,human α2C‐adrenoceptor,708 nM
CCC1(C2=NCCN2)Cc2ccccc2O1 (stereo not shown) [eforaxan],Log KD β2,human β2‐adrenoceptor; [3],no binding to −3
same,Log KD β2,human β2‐adrenoceptor; [4],no binding to -3
same,Log KD β1,human β1‐adrenoceptor; [3],no binding to −3
same,Log KD β1,human β1‐adrenoceptor; [4],no binding to -3
CNCCCN1c2ccccc2CCc2ccc(Cl)cc21 [norclomipramine],"IC50 (log) β2, IC50>top concentration used","human β2‐adrenoceptor; ^3H‐CGP12177, log value",IC50>−4.5
same,"IC50 (log) β1, IC50>top concentration used","human β1‐adrenoceptor; ^3H‐CGP12177, log value",IC50>−4.5
same,Log KD α2A,human α2A‐adrenoceptor [1],−5.29 ± 0.09^app
same,Log KD α2B,human α2B‐adrenoceptor,−5.74 ± 0.04^app
same,Selectivity ratio α2A vs α2B (higher affinity for α2B),human α2B‐adrenoceptor; ratio of KD values,2.8
same,Log KD α2C,human α2C‐adrenoceptor,−5.80 ± 0.07^app
same,Selectivity ratio α2A vs α2C (higher affinity for α2C),human α2C‐adrenoceptor,3.2
same,Selectivity ratio α2B vs α2C (higher affinity for α2C),human α2C‐adrenoceptor,1.1
CC(COc1ccccc1)N(CCCl)Cc1ccccc1 (stereo not shown) [phenoxybenzamine],% site 1 α2B (percentage through first component),human α2B‐adrenoceptor,−6.44 ± 0.11 −4.89 ± 0.08 51.4 ± 3.3% site 1
same,"% site 1, α2B",human α2B‐adrenoceptor; [5],51.4 ± 3.3%
same,"% site 1, α2B",human α2B‐adrenoceptor; [6],51.4 ± 3.3%
same,% site 1 α2C (percentage through first component),human α2C‐adrenoceptor,−6.41 ± 0.11 −4.71 ± 0.13 74.1 ± 4.1% site 1
same,"% site 1, α2C",human α2C‐adrenoceptor; [5],74.1 ± 4.1%
same,"% site 1, α2C",human α2C‐adrenoceptor; [6],74.1 ± 4.1%
CNCCCC1c2ccccc2C=Cc2ccccc21 [protriptyline],Kd,human α2A‐adrenoceptor [2],10000 nM
O=C1Cc2cc(CCN3CCN(c4nsc5ccccc45)CC3)c(Cl)cc2N1 [ziprasidone],Log KD β2,human β2‐adrenoceptor; [3],No binding to −4
same,Log KD β2,human β2‐adrenoceptor; [4],No binding to -4
same,Log KD β1,human β1‐adrenoceptor; [3],No binding to −4
same,Log KD β1,human β1‐adrenoceptor; [4],No binding to -4
